In ChEMBL document CHEMBL1149076, “Sulfamides as novel histone deacetylase inhibitors” (Bioorg Med Chem Lett, 2009):
Calls of active or inactive are those of the source. The calls are words filed in the database; no cut-off is given here.

Legend:
[1] = biological target: T1, Histone deacetylase 8 (Homo sapiens) (UniProt Q9BY41); assay: Inhibition of human recombinant N-terminal histidine-tagged HDAC8 expressed in baculovirus by fluorimetry
T1 sequence (whole entry): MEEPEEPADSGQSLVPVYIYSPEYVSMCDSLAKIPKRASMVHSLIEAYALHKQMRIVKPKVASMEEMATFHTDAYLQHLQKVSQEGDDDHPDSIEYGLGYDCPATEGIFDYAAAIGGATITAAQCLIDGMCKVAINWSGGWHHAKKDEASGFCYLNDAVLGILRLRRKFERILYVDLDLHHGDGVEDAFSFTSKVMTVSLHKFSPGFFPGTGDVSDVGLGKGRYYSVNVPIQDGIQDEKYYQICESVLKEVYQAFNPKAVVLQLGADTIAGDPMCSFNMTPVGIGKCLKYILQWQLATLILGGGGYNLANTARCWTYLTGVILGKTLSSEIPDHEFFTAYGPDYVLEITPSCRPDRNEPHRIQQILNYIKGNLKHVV

[2] = biological target: Histone deacetylase 4 (Homo sapiens) (UniProt P56524); assay: Inhibition of human recombinant N-terminal histidine-tagged HDAC4 expressed in baculovirus by fluorimetry
Chain of Histone deacetylase 4 (Homo sapiens) (P56524 whole entry): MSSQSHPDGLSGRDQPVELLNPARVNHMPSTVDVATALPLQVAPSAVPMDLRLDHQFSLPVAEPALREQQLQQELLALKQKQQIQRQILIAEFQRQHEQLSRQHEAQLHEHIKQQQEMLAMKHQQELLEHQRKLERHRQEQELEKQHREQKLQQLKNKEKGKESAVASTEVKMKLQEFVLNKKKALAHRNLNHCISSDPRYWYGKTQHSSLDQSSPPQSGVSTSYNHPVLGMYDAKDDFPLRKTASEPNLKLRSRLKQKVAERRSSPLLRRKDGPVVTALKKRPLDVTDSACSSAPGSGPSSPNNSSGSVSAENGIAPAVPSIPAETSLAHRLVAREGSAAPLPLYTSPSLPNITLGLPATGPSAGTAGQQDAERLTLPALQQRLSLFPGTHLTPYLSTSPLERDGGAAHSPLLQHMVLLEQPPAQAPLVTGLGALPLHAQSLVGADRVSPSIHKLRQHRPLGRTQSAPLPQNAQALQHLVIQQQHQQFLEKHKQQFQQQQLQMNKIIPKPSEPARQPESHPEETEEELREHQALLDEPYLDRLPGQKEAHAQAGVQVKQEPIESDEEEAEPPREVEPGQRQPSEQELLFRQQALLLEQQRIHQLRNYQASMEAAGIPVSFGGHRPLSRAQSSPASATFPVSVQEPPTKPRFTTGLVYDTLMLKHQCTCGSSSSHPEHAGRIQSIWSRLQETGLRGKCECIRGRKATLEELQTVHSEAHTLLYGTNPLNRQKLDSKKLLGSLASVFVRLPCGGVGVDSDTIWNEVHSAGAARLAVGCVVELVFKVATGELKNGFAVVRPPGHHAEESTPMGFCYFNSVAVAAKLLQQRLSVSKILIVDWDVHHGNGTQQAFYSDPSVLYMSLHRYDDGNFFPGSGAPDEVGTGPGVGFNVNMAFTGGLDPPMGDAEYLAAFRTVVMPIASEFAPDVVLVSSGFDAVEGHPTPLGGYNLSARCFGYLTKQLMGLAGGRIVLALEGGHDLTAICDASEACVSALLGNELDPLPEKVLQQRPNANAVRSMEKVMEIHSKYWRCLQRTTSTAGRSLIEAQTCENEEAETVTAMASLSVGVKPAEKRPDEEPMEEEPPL

[3] = biological target: T2, Histone deacetylase 7 (Homo sapiens) (UniProt Q8WUI4); assay: Inhibition of human recombinant N-terminal histidine-tagged HDAC7 expressed in baculovirus by fluorimetry
T2 sequence (whole entry): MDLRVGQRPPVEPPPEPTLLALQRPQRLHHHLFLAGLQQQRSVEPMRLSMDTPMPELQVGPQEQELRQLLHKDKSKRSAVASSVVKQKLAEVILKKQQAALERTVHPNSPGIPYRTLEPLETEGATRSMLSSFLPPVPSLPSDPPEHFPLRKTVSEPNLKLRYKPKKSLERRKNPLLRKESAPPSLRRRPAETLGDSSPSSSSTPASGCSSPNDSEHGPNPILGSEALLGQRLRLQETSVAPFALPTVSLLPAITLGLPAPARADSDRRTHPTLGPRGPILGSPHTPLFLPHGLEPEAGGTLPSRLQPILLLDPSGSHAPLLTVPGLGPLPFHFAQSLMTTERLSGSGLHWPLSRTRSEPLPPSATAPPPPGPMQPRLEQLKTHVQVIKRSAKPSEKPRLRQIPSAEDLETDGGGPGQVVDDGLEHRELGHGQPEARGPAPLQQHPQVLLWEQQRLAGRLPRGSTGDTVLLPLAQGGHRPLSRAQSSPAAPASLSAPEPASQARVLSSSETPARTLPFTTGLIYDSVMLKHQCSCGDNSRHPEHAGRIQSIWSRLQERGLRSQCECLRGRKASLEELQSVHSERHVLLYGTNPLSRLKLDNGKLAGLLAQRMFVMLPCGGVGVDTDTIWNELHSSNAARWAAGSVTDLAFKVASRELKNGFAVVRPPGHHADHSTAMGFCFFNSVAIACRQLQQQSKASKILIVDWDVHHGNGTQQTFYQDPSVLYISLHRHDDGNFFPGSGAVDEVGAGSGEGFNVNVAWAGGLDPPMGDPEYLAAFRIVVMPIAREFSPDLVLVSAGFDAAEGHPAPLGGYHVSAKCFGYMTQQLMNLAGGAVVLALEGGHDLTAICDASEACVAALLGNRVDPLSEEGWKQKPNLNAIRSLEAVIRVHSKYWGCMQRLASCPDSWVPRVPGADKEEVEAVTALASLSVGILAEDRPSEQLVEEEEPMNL

[4] = biological target: T3, Histone deacetylase 1 (Homo sapiens, UniProt Q13547); assay: Inhibition of human recombinant C-terminal FLAG-tagged HDAC1 expressed in baculovirus by fluorimetry
T3 sequence (Q13547 whole entry): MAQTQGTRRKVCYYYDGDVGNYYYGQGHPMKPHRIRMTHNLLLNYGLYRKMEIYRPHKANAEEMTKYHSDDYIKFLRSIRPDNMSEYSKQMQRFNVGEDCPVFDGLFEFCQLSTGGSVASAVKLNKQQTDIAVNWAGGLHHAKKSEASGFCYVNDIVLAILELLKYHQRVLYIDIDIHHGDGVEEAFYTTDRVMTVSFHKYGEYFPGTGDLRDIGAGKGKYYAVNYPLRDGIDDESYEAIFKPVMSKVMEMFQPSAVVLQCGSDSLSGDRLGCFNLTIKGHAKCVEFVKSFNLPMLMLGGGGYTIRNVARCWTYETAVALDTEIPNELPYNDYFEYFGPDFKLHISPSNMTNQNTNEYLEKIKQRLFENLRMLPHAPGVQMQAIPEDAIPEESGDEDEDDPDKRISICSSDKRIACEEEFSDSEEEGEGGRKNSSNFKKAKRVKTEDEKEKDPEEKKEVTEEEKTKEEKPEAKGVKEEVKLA

[5] = biological target: Histone deacetylase 3 (Homo sapiens) (UniProt O15379); assay: Inhibition of human recombinant C-terminal FLAG-tagged HDAC3 expressed in baculovirus by fluorimetry
Chain of Histone deacetylase 3 (Homo sapiens) (O15379 whole entry): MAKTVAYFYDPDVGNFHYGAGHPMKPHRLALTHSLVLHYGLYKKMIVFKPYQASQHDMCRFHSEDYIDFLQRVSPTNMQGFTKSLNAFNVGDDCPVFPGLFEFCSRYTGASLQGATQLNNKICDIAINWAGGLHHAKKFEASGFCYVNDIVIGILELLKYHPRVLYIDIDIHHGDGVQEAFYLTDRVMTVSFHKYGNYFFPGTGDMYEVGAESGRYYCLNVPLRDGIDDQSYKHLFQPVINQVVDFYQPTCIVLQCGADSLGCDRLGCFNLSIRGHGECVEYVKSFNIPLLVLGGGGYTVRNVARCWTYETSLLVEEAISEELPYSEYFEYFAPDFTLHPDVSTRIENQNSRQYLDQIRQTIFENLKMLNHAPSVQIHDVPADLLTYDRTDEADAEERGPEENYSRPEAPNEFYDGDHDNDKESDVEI

[6] = biological target: Histone deacetylase 5 (Homo sapiens) (UniProt Q9UQL6); assay: Inhibition of human recombinant N-terminal histidine-tagged HDAC5 expressed in baculovirus by fluorimetry
Chain of Histone deacetylase 5 (Homo sapiens) (Q9UQL6 whole entry): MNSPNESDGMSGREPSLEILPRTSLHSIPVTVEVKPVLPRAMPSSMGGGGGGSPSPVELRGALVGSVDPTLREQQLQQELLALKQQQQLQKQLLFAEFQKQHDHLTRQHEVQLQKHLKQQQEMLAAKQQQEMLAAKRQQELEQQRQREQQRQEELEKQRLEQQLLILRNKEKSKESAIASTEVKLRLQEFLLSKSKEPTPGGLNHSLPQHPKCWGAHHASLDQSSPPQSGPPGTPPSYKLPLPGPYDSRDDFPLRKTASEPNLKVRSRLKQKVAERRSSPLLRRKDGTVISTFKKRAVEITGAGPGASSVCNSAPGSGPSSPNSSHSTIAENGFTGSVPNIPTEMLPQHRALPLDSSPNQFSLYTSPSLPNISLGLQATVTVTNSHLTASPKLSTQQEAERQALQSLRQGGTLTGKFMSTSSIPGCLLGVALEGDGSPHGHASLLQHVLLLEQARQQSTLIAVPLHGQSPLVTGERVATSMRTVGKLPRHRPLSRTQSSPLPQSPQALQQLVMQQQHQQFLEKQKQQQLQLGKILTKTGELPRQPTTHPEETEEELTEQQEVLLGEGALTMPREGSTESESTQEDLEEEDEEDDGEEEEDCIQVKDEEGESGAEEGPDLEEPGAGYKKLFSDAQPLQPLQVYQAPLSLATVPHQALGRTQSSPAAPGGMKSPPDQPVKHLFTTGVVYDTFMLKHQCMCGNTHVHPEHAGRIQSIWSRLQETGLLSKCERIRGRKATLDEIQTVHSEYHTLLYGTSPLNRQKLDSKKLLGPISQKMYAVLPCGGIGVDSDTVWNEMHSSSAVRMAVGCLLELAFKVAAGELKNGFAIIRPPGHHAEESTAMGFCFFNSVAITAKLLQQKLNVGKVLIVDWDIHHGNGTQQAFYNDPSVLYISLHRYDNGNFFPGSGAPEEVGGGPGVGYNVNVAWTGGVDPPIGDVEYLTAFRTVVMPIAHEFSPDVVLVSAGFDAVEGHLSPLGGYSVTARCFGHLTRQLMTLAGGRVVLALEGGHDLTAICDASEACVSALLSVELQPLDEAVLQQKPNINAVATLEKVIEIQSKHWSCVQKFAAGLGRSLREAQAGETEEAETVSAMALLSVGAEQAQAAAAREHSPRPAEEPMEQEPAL

[7] = biological target: T4, Protein deacetylase HDAC6 (Homo sapiens, UniProt Q9UBN7); assay: Inhibition of human recombinant N-terminal histidine-tagged HDAC6 expressed in baculovirus by fluorimetry
T4 sequence (Q9UBN7 whole entry): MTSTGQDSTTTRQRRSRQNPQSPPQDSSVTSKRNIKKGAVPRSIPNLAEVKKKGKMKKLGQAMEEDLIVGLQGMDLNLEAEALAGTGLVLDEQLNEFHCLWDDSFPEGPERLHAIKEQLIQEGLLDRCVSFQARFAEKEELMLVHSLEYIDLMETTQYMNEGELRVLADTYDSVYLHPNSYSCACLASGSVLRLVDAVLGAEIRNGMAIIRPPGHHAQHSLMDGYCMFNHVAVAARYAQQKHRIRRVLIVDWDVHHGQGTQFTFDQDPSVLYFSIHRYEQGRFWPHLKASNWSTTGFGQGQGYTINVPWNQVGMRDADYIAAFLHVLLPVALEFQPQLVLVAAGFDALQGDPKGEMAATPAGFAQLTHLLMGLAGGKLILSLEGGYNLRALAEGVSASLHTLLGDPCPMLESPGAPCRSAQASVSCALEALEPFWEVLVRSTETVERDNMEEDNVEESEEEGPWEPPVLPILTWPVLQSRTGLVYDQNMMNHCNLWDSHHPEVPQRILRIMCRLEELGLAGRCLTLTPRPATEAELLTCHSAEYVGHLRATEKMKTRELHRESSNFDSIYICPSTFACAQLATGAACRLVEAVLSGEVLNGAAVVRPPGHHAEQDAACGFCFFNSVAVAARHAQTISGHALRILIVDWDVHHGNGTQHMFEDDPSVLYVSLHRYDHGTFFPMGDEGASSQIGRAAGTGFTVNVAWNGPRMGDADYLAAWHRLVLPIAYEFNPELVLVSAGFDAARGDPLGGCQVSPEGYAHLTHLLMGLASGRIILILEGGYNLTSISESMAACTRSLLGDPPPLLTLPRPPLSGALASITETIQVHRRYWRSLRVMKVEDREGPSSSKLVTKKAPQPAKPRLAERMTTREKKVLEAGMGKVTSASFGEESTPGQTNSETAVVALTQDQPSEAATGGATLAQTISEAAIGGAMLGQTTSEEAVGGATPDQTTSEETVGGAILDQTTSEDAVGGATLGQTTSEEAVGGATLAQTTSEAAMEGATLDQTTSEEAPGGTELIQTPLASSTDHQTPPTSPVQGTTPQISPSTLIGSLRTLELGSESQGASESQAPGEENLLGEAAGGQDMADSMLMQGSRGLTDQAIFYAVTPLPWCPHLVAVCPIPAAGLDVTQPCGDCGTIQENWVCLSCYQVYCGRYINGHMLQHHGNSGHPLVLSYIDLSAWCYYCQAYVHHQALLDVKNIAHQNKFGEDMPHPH

[8] = biological target: Histone deacetylase 2 (Homo sapiens) (UniProt Q92769); assay: Inhibition of human recombinant C-terminal FLAG-tagged HDAC2 expressed in baculovirus by fluorimetry
Chain of Histone deacetylase 2 (Homo sapiens) (Q92769 whole entry): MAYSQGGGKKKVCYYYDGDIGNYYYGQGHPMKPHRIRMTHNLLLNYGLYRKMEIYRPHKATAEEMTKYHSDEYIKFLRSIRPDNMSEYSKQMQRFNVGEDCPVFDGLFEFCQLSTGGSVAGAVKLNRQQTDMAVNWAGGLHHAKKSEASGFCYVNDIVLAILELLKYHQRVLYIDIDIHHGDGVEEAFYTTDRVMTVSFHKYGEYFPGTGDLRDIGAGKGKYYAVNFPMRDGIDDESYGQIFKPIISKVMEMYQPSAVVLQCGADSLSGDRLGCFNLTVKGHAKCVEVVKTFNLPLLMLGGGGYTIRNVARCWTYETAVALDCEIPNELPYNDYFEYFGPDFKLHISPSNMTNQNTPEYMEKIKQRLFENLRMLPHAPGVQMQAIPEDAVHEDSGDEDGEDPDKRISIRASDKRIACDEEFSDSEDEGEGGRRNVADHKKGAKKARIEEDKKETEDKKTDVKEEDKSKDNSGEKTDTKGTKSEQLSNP

[9] = system: T-24; assay: Induction of histone H3 acetylation in human T24 cells after 3 hrs by ELISA; assay type: functional, cell-based; settings: T-24, 3 h
[10] = system: T-24; assay: Induction of alpha tubulin acetylation in human T24 cells after 3 hrs by ELISA; assay type: functional, cell-based; settings: T-24, 3 h
[11] = biological target: T3, Histone deacetylase 1; assay: Inhibition of HDAC1 in human 293T cells after 16 hrs by fluorimetry; assay type: cell-based

Row | Activity [1] | Activity [2] | Activity [3] | IC50 [4] | Activity [5] | Activity [6] | IC50 [7] | Activity [8] | EC50 [9] | EC50 [10] | IC50 [11] | Structure (SMILES)
1 | inactive | inactive | inactive | > 10000 nM | inactive | inactive | > 10000 nM | – | – | – | – | NS(=O)(=O)NC(=O)CCCCCC(=O)Nc1cccc(-c2ccccc2)c1
2 | inactive | inactive | inactive | > 10000 nM | inactive | inactive | > 10000 nM | – | – | – | – | CN(C)S(=O)(=O)NCCCCCC(=O)Nc1cccc(-c2ccccc2)c1
3 | inactive | inactive | inactive | > 10000 nM | inactive | inactive | > 10000 nM | – | – | – | – | CNS(=O)(=O)NCCCCCC(=O)Nc1cccc(-c2ccccc2)c1
4 | – | – | – | > 10000 nM | – | – | 1500 nM | – | – | – | – | NS(=O)(=O)NCCCCCC(=O)Nc1ccccc1
5 | inactive | inactive | inactive | > 10000 nM | inactive | inactive | > 10000 nM | – | – | – | – | CC(=O)NS(=O)(=O)NCCCCCC(=O)Nc1cccc(-c2ccccc2)c1
6 | inactive | inactive | inactive | > 10000 nM | inactive | inactive | 1100 nM | – | – | – | – | NS(=O)(=O)NCCCCCC(=O)Nc1cccc(-c2ccccc2)c1
7 | inactive | inactive | inactive | > 10000 nM | inactive | inactive | > 10000 nM | – | – | – | – | NS(=O)(=O)OCCCCCC(=O)Nc1cccc(-c2ccccc2)c1
8 | inactive | inactive | inactive | > 10000 nM | inactive | inactive | > 10000 nM | – | – | – | – | NS(=O)(=O)NCCCCC(=O)Nc1cccc(-c2ccccc2)c1
9 | inactive | inactive | inactive | > 10000 nM | inactive | inactive | > 10000 nM | – | – | – | – | NS(=O)(=O)NCCCCCCC(=O)Nc1cccc(-c2ccccc2)c1
10 | inactive | inactive | inactive | > 10000 nM | inactive | inactive | > 10000 nM | – | – | – | – | CN(CCCCCC(=O)Nc1cccc(-c2ccccc2)c1)S(N)(=O)=O

Further lines, the compound ahead of its results:

Row | Structure (SMILES) | Activity [1] | Activity [2] | Activity [3] | IC50 [4] | Activity [5] | Activity [6] | IC50 [7] | Activity [8] | EC50 [9] | EC50 [10] | IC50 [11]
11 | NS(=O)(=O)NCCCCCC(=O)Nc1nc(-c2ccccc2)cs1 | – | – | – | > 10000 nM | – | – | 900 nM | inactive | 20000 nM | 3500 nM | > 50000 nM
12 | COc1cc(NC(=O)[C@H](CCCCNS(N)(=O)=O)NC(=O)OCc2ccccc2)c2ncccc2c1 | – | – | – | 460 nM | – | – | 60 nM | – | 350 nM | 200 nM | 1800 nM
13 | NS(=O)(=O)NCCCCCC(=O)Nc1ccc2ncccc2c1 | – | – | – | > 10000 nM | – | – | 490 nM | inactive | – | – | –
14 | COc1cc(NC(=O)CCCCCNS(N)(=O)=O)c2ncccc2c1 | – | – | – | > 10000 nM | – | – | 440 nM | inactive | > 25000 nM | 1000 nM | > 50000 nM
15 | NS(=O)(=O)NCCCCCC(=O)Nc1cccc2cccnc12 | – | – | – | > 10000 nM | – | – | 390 nM | inactive | – | – | –
16 | Nc1ccccc1NC(=O)CCCCCCC(=O)Nc1cccc(-c2ccccc2)c1 | – | – | – | 490 nM | – | – | > 50000 nM | – | – | – | –
17 | O=C(CCCCCCC(=O)Nc1cccc(-c2ccccc2)c1)NO | – | – | – | 9 nM | – | – | 9 nM | – | – | – | –
18 | NS(=O)(=O)NCCCC[C@H](NC(=O)OCc1ccccc1)C(=O)Nc1nc(-c2ccccc2)cs1 | – | – | – | 160 nM | – | – | 180 nM | – | 700 nM | 600 nM | 2300 nM
19 | NS(=O)(=O)NCCCCCC(=O)Nc1cnc2ccccc2c1 | – | – | – | > 10000 nM | – | – | 710 nM | inactive | – | – | –
